Laboratory results published in PMC5075052, “Modulation of the Substitution Pattern of 5-Aryl-2-Aminoimidazoles Allows Fine-Tuning of Their Antibiofilm Activity Spectrum and Toxicity” (Antimicrobial Agents and Chemotherapy, 2016).

How the values were obtained:
[1] = tested on: C. albicans SC5314 + S. aureus SH1000; assay: Mixed C. albicans-S. aureus biofilm, selective plating CFU; assay type: cell-based, Candida albicans + Staphylococcus aureus; conditions: 37°C
Description: Overnight cultures of C. albicans SC5314 (YPD, 30°C) and S. aureus SH1000 (LB, 37°C) were washed with PBS, after which they were diluted in RPMI 1640 medium to obtain cell suspensions of 10^6 cells/ml for fungal cells and 10^8 cells/ml for bacteria. Equal volumes of these cell suspensions were mixed, and 100 μl of this mixed cell suspension together with compound was added to the wells of a microtiter plate in triplicate. Concentrations of 25 μM (0.0625% DMSO or ethanol) and 100 μM (0.25% DMSO or ethanol) were tested. The plates were incubated at 37°C for 90 min. After incubation, the wells were washed twice with PBS, and 200 μl of fresh RPMI 1640 medium with or without compounds was added in triplicate to the wells. After 24 h of incubation at 37°C, the medium was removed and the biofilm was washed with PBS. Next, the cells were resuspended in 100 μl of PBS by scraping them off, sonicated (1 min, 45 kHz; USC300-T; VWR, Radnor, PA, USA), and vigorously pipetted up and down. Finally, dilution series were made, and quantification of the S. aureus SH1000 and C. albicans SC5314 populations was performed using selective plating on TSA plates containing 25 mg/liter amphotericin B and YPD plates containing 100 μg/ml tetracycline, respectively. The percentage of C. albicans SC5314 and S. aureus SH1000 cells relative to the number of cells after DMSO or ethanol control treatment was determined.

[2] = tested on: eukaryotic tumor cell lines, bone cells, and the nematode Caenorhabditis elegans; parameters: method as in PMID 25325155; conditions: C. elegans; cited from earlier work
[3] = tested on: C. albicans SC5314 + E. coli MG1655; assay: Mixed C. albicans-E. coli biofilm, selective plating CFU; assay type: cell-based, Candida albicans + Escherichia coli; conditions: 37°C
Description: Overnight cultures of C. albicans SC5314 (YPD) and E. coli MG1655 (TSB) were washed three times with PBS, after which they were diluted in RPMI 1640 medium to OD600s of 1 and 0.01, respectively. Equal volumes of these cell suspensions were mixed, and 100 μl of this mixed cell suspension together with compound was added to the wells of a microtiter plate in triplicate. Concentrations of 25 μM (0.0625% DMSO or ethanol) and 100 μM (0.25% DMSO or ethanol) were tested. After 24 h of incubation at 37°C, the medium was removed and the biofilm was washed with PBS. Next, the cells were resuspended in 100 μl of PBS by scraping them off, sonicated (1 min, 45 kHz; USC300-T; VWR, Radnor, PA, USA), and vigorously pipetted up and down. Finally, dilution series were made, and quantification of the E. coli MG1655 and C. albicans SC5314 populations was performed using selective plating on tryptic soy agar (TSA) plates containing 25 mg/liter amphotericin B and YPD plates containing 100 μg/ml tetracycline, respectively. The percentage of C. albicans SC5314 and E. coli MG1655 cells relative to the number of cells after DMSO or ethanol control treatment was determined.

[4] = tested on: bone marrow-derived mesenchymal stem cells (MSC); assay: Mammalian cell viability assay, trypan blue staining; assay type: cell-based; conditions: 12.5 μM, 6 days of exposure
Description: The viability of two human primary cell types, namely, osteoblasts (OB) and bone marrow-derived mesenchymal stem cells (MSC), was tested according to the ISO 10993-5 standard, as previously described ([76]). Briefly, cells were seeded in 96-well tissue culture test plates (TPP; Trasadingen, Switzerland) at 5 × 10^3 cells/cm^2 in cell culture medium (advanced Dulbecco modified Eagle's medium [DMEM]) supplemented with 10% serum, 1× GlutaMAX, and 0.05 mg/ml gentamicin and were allowed to attach overnight. On the next day, the cells were exposed to (i) cell culture medium and medium with the corresponding control (0.5% ethanol or DMSO; negative controls), (ii) medium with 0.05% phenol (cytotoxic control), and (iii) medium with compounds (12.5 μM) and incubated for 2 h, 48 h, and 6 days (8 repeats for each condition). At each time point, the numbers of viable and dead cells were determined directly by trypan blue staining and indirectly by measuring metabolic activity with 3-(4,5-dimethylthiazol-2-yl)-2,5-diphenyltetrazolium bromide (MTT) staining.
The medium was removed from the wells, 1/3 trypan blue in DMEM was added to the cells, and the cells were incubated for 3 min, after which the trypan blue was removed and DMEM was added to the wells. In each of four wells, two microscopy fields were counted for viable (transparent) and dead (blue) cells.

[5] = tested on: osteoblasts (OB); assay: Osteogenic differentiation, calcium and DNA assay; assay type: cell-based, human; conditions: 12.5 μM; for calcium deposition of OB (normalized by DNA): osteogenic medium, versus solvent control
Description: (§1) The effects of the substances on the osteogenic differentiation potential were assessed as previously described ([76]). Only the substances that allowed survival of the cells for more than 3 weeks, which is the time needed for mature osteogenic differentiation, were tested. Briefly, osteoblasts and bone marrow-derived mesenchymal stem cells were cultured in a positive solvent control (osteogenic medium with 0.5% DMSO or ethanol background), a negative control (medium without osteogenic supplements), and treated samples (osteogenic medium, 0.5% DMSO or ethanol background, and 12.5 μM test compound) with four repeats per condition. The cells in the mesenchymal stem cell and osteoblast cultures were harvested after 3 or 5 weeks, respectively, for the calcium and DNA assay.
(§2) The calcium deposition of osteoblasts and mesenchymal stem cells was measured with the calcium CPC LiquiColor test (Stanbio Laboratory, Boerne, TX) as previously described ([76]). Briefly, cell cultures were extracted with 5% trichloroacetic acid (500 μl per sample), o-cresolphthalein complex was added, and the calcium content was determined spectrophotometrically at 550 nm. The DNA content was determined as previously described ([76]). DNA values were used to normalize the calcium content. Four wells per condition were examined, and two samples from each well were taken for each assay.

[6] = tested on: bone marrow-derived mesenchymal stem cells (MSC); assay: Osteogenic differentiation, calcium and DNA assay; assay type: cell-based, human; conditions: 12.5 μM; for calcium deposition of MSC (normalized by DNA): osteogenic medium, versus solvent control
Description: as §1, §2

[7] = 25 μM compound, relative to solvent control

Q: What does the source list for `CCCCCCCCn1c(-c2ccc(Cl)cc2)cnc1N` [Compound 2]?
A: % CFU survival, C. albicans ([1]; 25 μM compound): 183.8%; % CFU survival, S. aureus ([1]; 25 μM compound): 87.7%; % CFU survival, C. albicans ([1]; 100 μM compound): 0.9%; % CFU survival, S. aureus ([1]; 100 μM compound): 0.2%; toxicity (previously reported) [2]: strong toxicity; % CFU survival, E. coli ([3]; 25 μM compound): 158.6%; % CFU survival, C. albicans [3, 7]: 104.9%; % CFU survival, C. albicans ([3]; 100 μM compound): 0.0%; % CFU survival, E. coli ([3]; 100 μM compound): 0.1%

Q: For `CC(C)CNc1ncc(-c2ccc(Cl)cc2)[nH]1` [Compound 3], which “% CFU survival, C. albicans” value ([1]; 25 μM compound) is on record?
A: 165.7%

Q: And the “% CFU survival, S. aureus” value ([1]; 25 μM compound)?
A: 124.6%

Q: And the “% CFU survival, C. albicans” value ([1]; 100 μM compound)?
A: 141.3%

Q: And the “% CFU survival, S. aureus” value ([1]; 100 μM compound)?
A: 51.8%

Q: What about the “% CFU survival, E. coli” value ([3]; 25 μM compound) of the same molecule?
A: 138.5%

Q: What about the “% CFU survival, C. albicans” value [3, 7] of the same molecule?
A: 143.4%

Q: And the “% CFU survival, C. albicans” value ([3]; 100 μM compound)?
A: 59.6%

Q: What about the “% CFU survival, E. coli” value ([3]; 100 μM compound) of the same molecule?
A: 63.0%

Q: With `Clc1ccc(-c2cnc(NC3CCCC3)[nH]2)cc1` [Compound 5] as the molecule, how does the “% CFU survival, C. albicans” value ([1]; 25 μM compound) read?
A: 232.4%

Q: And the “% CFU survival, S. aureus” value ([1]; 25 μM compound)?
A: 75.4%

Q: What about the “% CFU survival, C. albicans” value ([1]; 100 μM compound) of the same molecule?
A: 120.6%

Q: And the “% CFU survival, S. aureus” value ([1]; 100 μM compound)?
A: 74.5%

Q: And the “% CFU survival, E. coli” value ([3]; 25 μM compound)?
A: 100.6%

Q: And the “% CFU survival, C. albicans” value [3, 7]?
A: 100.8%

Q: And the “% CFU survival, C. albicans” value ([3]; 100 μM compound)?
A: 38.3%

Q: And the “% CFU survival, E. coli” value ([3]; 100 μM compound)?
A: 105.6%

Q: With `Brc1ccc(-c2cnc(NCCn3cc(C4CC4)nn3)[nH]2)cc1` [Compound 6] as the molecule, how does the “toxicity (previously reported)” value [2] read?
A: higher level of toxicity

Q: For `CCCCCCCCn1c(-c2ccccc2)cnc1NCC(C)C` [Compound 8a], which “proliferation of MSC (trypan blue)” value [4] is on record?
A: slightly reduced

Q: For `CCCCCCCCn1c(-c2ccc(Cl)cc2)cnc1NCC(C)C` [Compound 8b], which “survival of OB allowed” value [5] is on record?
A: more than 3 weeks

Q: What about the “calcium deposition of OB (normalized by DNA)” value [5] of the same molecule?
A: induced

Q: What about the “survival of MSC allowed” value [6] of the same molecule?
A: more than 3 weeks

Q: What about the “calcium deposition of MSC (normalized by DNA)” value [6] of the same molecule?
A: induced

Q: Which results are given for `CCCCCCCCn1c(-c2ccc(Br)cc2)cnc1NCC(C)C` [Compound 8c]?
A: survival of OB allowed [5]: more than 3 weeks; calcium deposition of OB (normalized by DNA) [5]: induced; survival of MSC allowed [6]: more than 3 weeks; calcium deposition of MSC (normalized by DNA) [6]: induced

Q: Which “proliferation of MSC (trypan blue)” value [4] does the source give for `CCCCCCCCn1c(-c2ccc(Cl)c(Cl)c2)cnc1NCC(C)C` [Compound 8d] here?
A: increase in proliferation

Q: What about the “survival of OB allowed” value [5] of the same molecule?
A: more than 3 weeks

Q: What about the “calcium deposition of OB (normalized by DNA)” value [5] of the same molecule?
A: none of the compounds at 12.5 μM negatively affected the calcium deposition

Q: What about the “survival of MSC allowed” value [6] of the same molecule?
A: more than 3 weeks

Q: And the “calcium deposition of MSC (normalized by DNA)” value [6]?
A: none of the compounds at 12.5 μM negatively affected the calcium deposition

Q: Which “proliferation of MSC (trypan blue)” value [4] does the source give for `CCCCCCCCn1c(-c2ccccc2)cnc1NC1CCCC1` [Compound 8e] here?
A: slightly reduced

Q: Which “proliferation of MSC (trypan blue)” value [4] does the source give for `CCCCCCCCn1c(-c2ccc(Cl)cc2)cnc1NC1CCCC1` [Compound 8f] here?
A: slightly reduced

Q: With `CCCCCCCCn1c(-c2ccc(Br)cc2)cnc1NC1CCCC1` [Compound 8g] as the molecule, how does the “proliferation of MSC (trypan blue)” value [4] read?
A: slightly reduced

Q: And the “survival of OB allowed” value [5]?
A: more than 3 weeks

Q: What about the “calcium deposition of OB (normalized by DNA)” value [5] of the same molecule?
A: induced

Q: And the “survival of MSC allowed” value [6]?
A: more than 3 weeks

Q: And the “calcium deposition of MSC (normalized by DNA)” value [6]?
A: induced

Q: With `CCCCCCCCn1c(-c2ccc(Cl)c(Cl)c2)cnc1NC1CCCC1` [Compound 8h] as the molecule, how does the “survival of OB allowed” value [5] read?
A: more than 3 weeks

Q: What about the “calcium deposition of OB (normalized by DNA)” value [5] of the same molecule?
A: induced

Q: What about the “survival of MSC allowed” value [6] of the same molecule?
A: more than 3 weeks

Q: And the “calcium deposition of MSC (normalized by DNA)” value [6]?
A: induced
